Literature values in patent publication US20180153879A1, “Solid Dispersion Comprising μ-Opioid Antagonists” (Sandoz AG, priority 2016, published 2018).

Conditions: free base form, exposure to air

Q: For `C=CCN1CC[C@]23c4c5ccc(O)c4O[C@H]2[C@@H](OCCOCCOCCOCCOCCOCCOCCOC)CC[C@@]3(O)[C@H]1C5` [naloxegol, (5α,6α)-17-allyl-6-(2,5,8,11,14,17,20-heptaoxadocosan-22-yloxy)-4,5-epoxymorphinan-3,14-diol], which oxidative stability is on record?
A: can undergo oxidative degradation upon exposure to air
